Test results: patent US11952349B2, “Anti-cancer nuclear hormone receptor-targeting compounds” (Nuvation Bio Inc., priority 2019, dated 2024)

Target: T1, AR in LNCaP cytosol (Homo sapiens, UniProt P10275, T878A)
T1 construct: AR in LNCaP cytosol was used; endogenous in cells; host or cells: LNCaP cells (cytosol)
T1 sequence (P10275 1-920 T878A): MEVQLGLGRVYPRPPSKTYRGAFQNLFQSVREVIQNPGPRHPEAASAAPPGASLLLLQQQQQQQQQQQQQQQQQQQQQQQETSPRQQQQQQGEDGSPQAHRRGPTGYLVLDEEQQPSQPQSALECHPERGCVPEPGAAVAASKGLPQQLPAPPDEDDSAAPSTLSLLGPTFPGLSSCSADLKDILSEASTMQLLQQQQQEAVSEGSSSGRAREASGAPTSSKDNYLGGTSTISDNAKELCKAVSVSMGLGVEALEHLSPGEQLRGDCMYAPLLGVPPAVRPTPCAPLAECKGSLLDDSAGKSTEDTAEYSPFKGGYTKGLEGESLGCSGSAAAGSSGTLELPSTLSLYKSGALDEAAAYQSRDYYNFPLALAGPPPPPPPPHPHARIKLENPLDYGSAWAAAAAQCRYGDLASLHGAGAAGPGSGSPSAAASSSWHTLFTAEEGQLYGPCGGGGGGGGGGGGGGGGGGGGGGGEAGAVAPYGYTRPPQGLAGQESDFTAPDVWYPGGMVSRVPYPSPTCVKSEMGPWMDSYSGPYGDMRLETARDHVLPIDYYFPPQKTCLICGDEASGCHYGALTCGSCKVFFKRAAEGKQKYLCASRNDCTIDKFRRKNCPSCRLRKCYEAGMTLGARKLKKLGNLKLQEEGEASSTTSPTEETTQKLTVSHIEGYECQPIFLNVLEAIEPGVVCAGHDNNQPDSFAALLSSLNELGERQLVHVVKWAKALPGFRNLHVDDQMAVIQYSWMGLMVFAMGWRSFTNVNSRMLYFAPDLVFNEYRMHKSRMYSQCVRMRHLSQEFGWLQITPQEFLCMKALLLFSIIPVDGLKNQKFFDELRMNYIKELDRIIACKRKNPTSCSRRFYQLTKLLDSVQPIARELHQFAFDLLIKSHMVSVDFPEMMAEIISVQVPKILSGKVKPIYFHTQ
Assay: AR binding assay, 3H-methyltrienolone (Biological Example 1)
Details: Table 6, in vitro NHR binding; Ki=IC50/(1+[L]/Kd), [L] 1 nM, Kd 0.332 nM
Experimental: The following methods are for evaluating the in vitro biology properties of the test articles. • a. RBC HotSpot Poly(ADP-ribose) Polymerases 1 (PARP1) and Poly(ADP-ribose) Polymerases 2 (PARP2) Assays: The assay was conducted at Reaction Biology Corporation (RBC; Malvern, PA). The assay principle is radioisotope-based filter binding assay where incorporation of radioisotope-labeled NAD^+ into the substrate captured on filter is detected after washout free NAD^+. Data were analyzed using Excel and GraphPad Prism software for IC50 curve fits. Each assay was conducted with PJ34 as a positive control. […] After incubation for 2 hrs at room temperature, the reaction mixture was filtered and washed with 0.75% phosphoric acid for radioactivity detection. • ii. […] After incubation for 2 hrs at room temperature, the reaction mixture was filtered and washed with 0.75% phosphoric acid for radioactivity detection. • b. […] IC50 s were determined using 8 concentrations/compound. […] Radioactivity is counted using a TriCarb 2910 TR scintillation counter (PerkinElmer). […] The Ki values were further calculated using the equation below where [L] is the radioligand concentration (1 nM) used in this study. […]

Cn1ncnc1C1c2n[nH]c(=O)c3cc(F)cc(c23)N[C@@H]1c1ccc(NC(=O)CCCCCO[C@@H]2CC[C@H]3[C@@H]4CC[C@H]5CCCC[C@]5(C)[C@H]4CC[C@]23C)cc1 (stereo partly drawn) [Compound 1128, 6-((5R,8R,9S,10S,13S,14S,17R)-10,13-dimethylhexadecahydro-1H-cyclopenta[a]phenanthren-17-yloxy)-N-(4-((8S)-5-fluoro-9-(1-methyl-1H-1,2,4-triazol-5-yl)-3-oxo-3,7,8,9-tetrahydro-2H-pyrido[4,3,2-de]phthalazin-8-yl)phenyl)hexanamide]
Ki: > 7.47 µM
